Assay results from ChEMBL document CHEMBL5360650, “Discovery of Small-Molecule TIM-3 Inhibitors for Acute Myeloid Leukemia Using Pharmacophore-Based Virtual Screening” (J Med Chem, 2023).
Calls of active or inactive are those of the source. No cut-off for these calls is given here.

Columns and labels:
[1] = biological target: T1, Hepatitis A virus cellular receptor 2 (Homo sapiens, UniProt Q8TDQ0); assay: Binding affinity to His-tagged recombinant human TIM3 expressed in HEK293 cells assessed as dissociation constant by sensor chip immobilization based SPR analysis
T1 sequence (Q8TDQ0 whole entry): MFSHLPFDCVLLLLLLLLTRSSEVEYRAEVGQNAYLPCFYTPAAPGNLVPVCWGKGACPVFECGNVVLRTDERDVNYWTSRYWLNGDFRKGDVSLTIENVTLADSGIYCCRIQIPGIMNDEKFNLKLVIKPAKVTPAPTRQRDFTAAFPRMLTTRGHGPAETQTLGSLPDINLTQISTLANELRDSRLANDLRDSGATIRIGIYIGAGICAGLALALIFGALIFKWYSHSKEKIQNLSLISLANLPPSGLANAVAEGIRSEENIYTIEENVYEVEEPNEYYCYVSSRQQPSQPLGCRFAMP

Kasumi 1 = assay: Inhibition of cell proliferation of human Kasumi 1 cocultured with 5 uM compound treated human PBMC cells by H3 thymidine uptake; format: functional, cell-based
Homo sapiens = species on record: Homo sapiens; assay: Inhibition of polyhis-tagged CEACAM1 binding to recombinant human TIM3 at 200 to 1000 nM preincubated with TIM3 for 1 hr followed by CEACAM1 addition measured after 1 hr by ELISA method; conditions: dose 200-1000 nM, time 2.0 hrs
[2] = biological target: T1, Hepatitis A virus cellular receptor 2; assay: Binding affinity to His-tagged recombinant human TIM3 expressed in HEK293 cells assessed as dissociation constant by MST assay; format: cell-based
[3] = biological target: Hepatitis A virus cellular receptor 2 (Homo sapiens) (UniProt Q8TDQ0); assay: Inhibition of recombinant human Gal-9 binding to biotinylated recombinant human TIM3 at 1 uM by competitive ELISA method
[4] = biological target: Hepatitis A virus cellular receptor 2 (Homo sapiens) (UniProt Q8TDQ0); assay: Inhibition of AF647-labeled TIM3 (unknown origin) binding to ptdSer in staurosporine-induced human Jurkat cells at 200 to 1000 nM preincubated with TIM3 followed by cell culture addition by flow cytometry; format: cell-based; conditions: dose 200-1000 nM
THP-1 = assay: Inhibition of cell proliferation of human THP-1 NucLight Red cells at 5 uM by incucyte based immune cell killing assay; format: functional
[5] = biological target: Hepatitis A virus cellular receptor 2 (Homo sapiens) (UniProt Q8TDQ0); assay: Inhibition of recombinant TIM3 (unknown origin) cocultured in PBMC cells assessed as IFN-gamma release at 5 uM by ELISA method; format: cell-based

| Kd [1] | Structure (SMILES) | further results |
| --- | --- | --- |
| 9.45 µM | COc1ccc(-c2noc(-c3cccc(NC(=O)COc4ccc(C)cc4)c3)n2)cc1 |  |
| 2.01 µM | COc1ccc(-c2noc(-c3cccc(OCC(=O)Nc4ccncc4)c3)n2)cc1 |  |
| 0.61 µM | COc1ccc(-c2noc(-c3cccc(OCC(=O)Nc4ccc(OC)cc4OC)c3)n2)cc1 | inhibition (Kasumi 1): Active; inhibition (Homo sapiens): Active; Kd [2]: 0.00058 µM; inhibition [3]: Active; inhibition [4]: Active; inhibition (THP-1): Active; inhibition [5]: Active |
| 11.6 µM | COc1ccc(-c2noc(-c3cccc(OCC(=O)NCc4ccco4)c3)n2)cc1 |  |
| 28.9 µM | COc1cc(-c2cc(OC)c3c(C)oc(C)c3c(=O)c2)ccc1OC(=O)c1ccc(C)cc1 |  |
| 28.9 µM | COc1ccc(-c2noc(-c3ccccc3OCC(=O)Nc3cc(C)cc(C)c3)n2)cc1 |  |
| 2.47 µM | COc1ccc(-c2noc(-c3cccc(OCC(=O)Nc4ccc(C)nc4)c3)n2)cc1 |  |
| 0.98 µM | COc1ccc(-c2noc(-c3cccc(OCC(=O)Nc4cc(OC)ccc4OC)c3)n2)cc1 |  |
| 8.32 µM | COc1ccc(-c2noc(-c3cccc(NC(=O)COc4ccccc4C)c3)n2)cc1 |  |
| 42.4 µM | Cc1ccc(-c2noc(-c3cccc(NC(=O)COc4ccccc4)c3)n2)cc1 |  |
| 53.1 µM | Cc1ccc(OCC(=O)Nc2cccc(-c3nc(-c4ccccc4)no3)c2)cc1 |  |
| 20.4 µM | COc1ccc(-c2noc(-c3cccc(OCC(=O)Nc4ccc(F)cc4)c3)n2)cc1 |  |
| 46.3 µM | Cc1cccc(-c2noc(-c3cccc(NC(=O)COc4ccccc4)c3)n2)c1 |  |
| 6.04 µM | COc1ccc(-c2noc(-c3cccc(NC(=O)COc4cccc(C)c4)c3)n2)cc1 |  |
| 1.63 µM | COc1ccc(-c2noc(-c3cccc(OCC(=O)Nc4cccc(OC)c4)c3)n2)cc1 |  |
| 63.7 µM | O=C(COc1ccccc1)Nc1cccc(-c2nc(-c3ccccc3)no2)c1 |  |
| 1.35 µM | CCOc1ccc(NC(=O)COc2cccc(-c3nc(-c4ccc(OC)cc4)no3)c2)cc1 |  |
| 17.3 µM | Cc1ccc(Nc2nc(C)cc(Nc3ccc(NC(=O)c4ccc5c(c4)OCO5)cc3)n2)cc1 |  |
| 3.12 µM | COc1ccc(-c2noc(-c3cccc(OCC(=O)Nc4cccc(C)c4)c3)n2)cc1 |  |
| 27.6 µM | COc1ccc(-c2noc(-c3cccc(OCC(=O)Nc4ccccc4F)c3)n2)cc1 |  |
| 12.7 µM | COc1ccc(-c2noc(-c3cccc(NC(=O)COc4ccccc4)c3)n2)cc1 |  |
| 1.28 µM | CCOc1ccc(NC(=O)COc2cccc(-c3noc(-c4ccc(OC)cc4)n3)c2)cc1 |  |
